Reference: PubChem BioAssay (NCI)
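Five concentrations, 48 hours, 96-well plates. Definition used: TGI = concentration required for complete inhibition of growth.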

What was measured:
Experiment in all cases: NCI tumour cell line growth inhibition, 48 h
[1] = tested on: CCRF-CEM leukemia
[2] = tested on: IGROV1 ovarian
[3] = tested on: MALME-3M melanoma
[4] = tested on: NCI/ADR-RES ovarian
[5] = tested on: OVCAR-5 ovarian
[6] = tested on: OVCAR-8 ovarian
[7] = tested on: SF-295 CNS
[8] = tested on: SF-539 CNS
[9] = tested on: SK-MEL-5 melanoma
[10] = tested on: U251 CNS
[11] = tested on: SK-OV-3 ovarian

SMILES | TGI [1] [µM] | TGI [2] [µM] | TGI [3] [µM] | TGI [4] [µM] | TGI [5] [µM] | TGI [6] [µM] | TGI [7] [µM] | TGI [8] [µM] | TGI [9] [µM] | TGI [10] [µM] | TGI [11] [µM]
Cn1cnc(N2CCCC2)c(C#N)c1=S | > 100 | > 100 | > 100 | > 100 | > 100 | > 100 | > 100 | > 100 | > 100 | > 100 | 
Cc1c(Cc2ccccc2)n(C(C)OCCN(OC(=O)Oc2ccccc2)C(=O)Oc2ccccc2)c(=O)[nH]c1=O (stereo not given) | 50 | 31.7 |  | 39.1 | 31.6 | 34.7 | 30.8 | 37.4 | 28.4 | 38.3 | 46.3
COc1ccc(-n2c(SC(CN3CCOCC3)CN3CCCC3=O)nc3ccccc3c2=O)cc1 (stereo not given) | > 100 | > 100 | > 100 | > 100 | > 100 | > 100 | > 100 | > 100 | > 100 | > 100 | > 100
COc1cccc2c1NC(=O)Cc1c-2[nH]c2ccccc12 | > 100 | > 100 | > 100 | > 100 | > 100 |  | > 100 | > 100 | > 100 | > 100 | > 100
O=C1c2ccccc2C(=O)N1n1c(Cc2ccc(Cl)cc2)n[nH]c1=O | > 100 | > 100 | > 100 | > 100 | > 100 | > 100 | > 100 | > 100 | > 100 | > 100 | 
CSc1cc(Cl)c(C)cc1S(=O)(=O)NC(=O)NNc1ccc(F)cc1 |  | > 100 | > 100 | > 100 | > 100 | > 100 | > 100 | > 100 | > 100 | > 100 | > 100
CCCCCCSc1nc(N)nc2nc[nH]c12 | > 100 | > 100 | > 100 | > 100 | > 100 | > 100 | > 100 | > 100 | > 62.5 | > 100 | 80.8
CN(C)CCNC(=O)c1cccc2ccc(-c3ccc(Br)cc3)nc12 | 7.75 | 13.2 | 8.68 | 5.89 | 10.2 | 4.76 | 14.8 | 11.4 | 2.92 | 12.2 | 10.6
CC(=O)C(=O)NC1/C=C(C)\C=C/C(O)C/C=C(C)\C=C/C(O)CC2OC(=O)C1(C)C(=O)C2C (stereo not given) | > 100 | > 100 | > 100 | > 100 | > 100 | > 100 | > 100 | > 100 | > 100 | > 100 | > 100
Nn1c(Nc2ccc(S(N)(=O)=O)cc2)nnc(/C=C/c2c(O)ccc3ccccc23)c1=O | 18.8 | 0.942 | 49.7 | 54 | 56.1 | 22.6 | 96.8 | > 100 | 28.7 | > 100 | 88.5
O=C(CCBr)N1CCN(C(=O)CCBr)CC1 | 257 | 245 | 206 | 221 | 189 | 246 | 212 | 168 | 149 | 114 | 212
CCC(=O)Nc1cccc(N=Cc2ccc(OC(=O)/C=C\c3ccccc3)cc2)c1 | > 75 | > 75 | > 75 | > 75 | > 75 | > 75 | > 75 | > 75 | > 75 |  | > 75
O=c1c2c3c(sc2nc2n1N=CN(c1ccccc1)C2)CCCC3 | > 100 | > 100 | > 100 | > 100 | > 100 | > 100 | > 100 |  | > 100 | > 100 | > 100
CN1CCN(C(=O)CCC(=O)Nc2cc3c(c4ccccc24)-c2ccc4ccccc4c2C3)CC1 |  | 2.74 | 3.71 | 4.55 | 3.15 | 4.38 | 3.4 | 3.13 | 3 | 4.11 | 3.09
Cc1nn(C(=O)c2ccccc2O)c2c1C(c1ccc(O)cc1O)SC(N)=N2 (stereo not given) | > 10 | > 10 | > 10 | 9.33 | 3.91 | > 10 | > 10 | > 10 | > 10 | > 10 | > 10
COc1ccc2nc3c([N+](=O)[O-])ccc(NCCN(C)C)c3c(N)c2c1 | 0.531 | 2.74 | 3.14 | 3.03 | 3.09 | 4.33 | 3.62 | 3.05 | 3.45 | 3.13 | 3.13
CC(=O)C1=C(C)O[C@@H]2O[C@H](COCc3ccccc3)[C@@H](OCc3ccccc3)[C@H](O)[C@@H]2S1 | 16.8 | 40.9 | 44.5 | 51.6 | 84.1 | 55.3 | 31.3 | 42.2 | 32.2 | 38.5 | 87.6
Cc1cc2nc3c(C#N)c4c(c(Nc5ccc(F)cc5)n3c2cc1C)CCC4 | > 100 | > 100 | > 100 | > 100 | > 100 | > 100 | > 100 | > 100 | > 100 | > 100 | > 100
COc1cc(CC(C)=O)cc(OC)c1 | > 100 | > 100 | > 100 | > 100 | > 100 | > 100 | > 100 |  | > 100 | > 100 | > 100
